The results in this text go back to paper PMC2803762 (Molecules, 2008).

For this experiment, the system named is pig liver esterase (PLE; EC 3.1.1.1). Kind of experiment: release of p-nitroaniline at […] nm, saturation curve. The class given is biochemical, Sus scrofa. Particulars: PBS pH 7.7, 10% v/v DMSO, 25 °C, PLE 0.25 μg/mL, substrate 0.5-33 μM.

Molecules are shown by their SMILES.

Regarding `CC(=O)Oc1cc(C)cc(C)c1C(C)(C)CC(=O)Nc1ccc([N+](=O)[O-])cc1` [compound 1, prochromophore 1], the Km came to 14 µM.

One may read the Km as the concentration of substrate that gives half-maximal velocity.
